Non-standard residues stand in square brackets, D forms with d. Residues, ends and D or L forms follow the SMILES beside them. Aib = CC(C)(N)C(=O)O
How the values were obtained:
[1] = target: T1, FPR1 (Homo sapiens, UniProt P21462); assay: Competition with FITC-fMLF binding to RBL-2H3/ETFR cells stably expressing FPR1; conditions: 100 nM pre-incubation 60 min at 4° C., then 10 nM FITC-fMLF
T1 construct: expressed in transfected cells; host or cells: rat basophilic leukaemia RBL-2H3/ETFR cells
T1 sequence (P21462 1-350): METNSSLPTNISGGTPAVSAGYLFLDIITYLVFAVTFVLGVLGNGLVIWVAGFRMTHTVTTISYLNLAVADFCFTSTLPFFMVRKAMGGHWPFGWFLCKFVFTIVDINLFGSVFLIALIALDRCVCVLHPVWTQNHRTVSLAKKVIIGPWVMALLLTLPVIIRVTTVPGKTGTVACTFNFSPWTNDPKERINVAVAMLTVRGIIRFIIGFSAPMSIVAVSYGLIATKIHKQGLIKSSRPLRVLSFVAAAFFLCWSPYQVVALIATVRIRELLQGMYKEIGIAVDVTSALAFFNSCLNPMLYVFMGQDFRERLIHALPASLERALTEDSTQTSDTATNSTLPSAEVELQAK
Method: Cell-associated fluorescence was measured using a fluorescence plate reader. The results are depicted in FIG. 3. […] To evaluate the effect of RI-3 on agonist-dependent FPR1 internalization, binding experiments were performed at 37° C. and cells were visualized using a Zeiss 510 Meta LSM microscope. Original magnifications: 630×. Scale bar: 10 μm.

[2] = tested on: human chondrosarcoma Sarc; assay: Trans-endothelial migration through HUVEC monolayer (xCELLigence RTCA), Sarc; format: cell-based; conditions: 10 nM, 5 hrs
Method: FIG. 9 At the concentration of 10 nM the retro-inverso peptide RI-3 affects trans-endothelial migration of human chondrosarcoma Sarc (A), melanoma A375 (B), ovarian carcinoma SKOV-3 (C) cells, or THP1 monocytes (D), as monitored by the xCELLigence RTCA system (Example 9).
The entry of tumor cells into bloodstream is one of the earliest events of the metastatic process. The ability of RI-3 to affect trans-endothelial migration of human chondrosarcoma Sarc (A) melanoma A375 (B), ovarian carcinoma SKOV-3 (C) cells, or THP1 monocytes (D) was monitored by the xCELLigence RTCA system. Human Umbilical Vein Endothelial Cells (HUVEC) (1×10^4 cells/well) suspended in growth medium, were allowed to grow for 20-25 hrs until they form a confluent monolayer, prior to seeding Sarc, A375, SKOV-3, or THP-1 cells (1×10^4 cells/well) in growth medium in the absence (None) or in the presence of 10 nM RI-3. The experiments were performed twice in quadruplicate. When cells cross the endothelial monolayer, there is a drop in electrical resistance which is monitored in real-time for 5 hrs as the cell index changes due to the rupture of endothelial monolayer. All cell lines were able to reduce endothelial monolayer integrity. The addition of 10 nM RI-3 inhibited the capability of Sarc, A375, SKOV-3, and THP-1 cells to disrupt endothelial monolayers by 17%, 22%, 58%, and 36% respectively.

[3] = tested on: chondrosarcoma Sarc; assay: Matrigel invasion (xCELLigence RTCA), Sarc; format: cell-based, human; conditions: 10 nM, 20 hrs
Method: FIG. 8 At the concentration of 10 nM the retro-inverso peptide RI-3 prevents matrigel invasion of tumor cells from human osteosarcoma Saos-2 (A), chondrosarcoma Sarc (B), melanoma A375 (C), metastatic melanoma A375M6 (D), ovarian carcinoma SKOV-3 cells (E), or primary ovarian cancer cells derived from a tumor excision (OV-53) (F), as monitored in real-time for 20 hr as changes in cell index by the xCELLigence RTCA system (Example 8).
To investigate the ability of RI-3 to prevents matrigel invasion of tumor cells form different tissue origins, human osteosarcoma Saos-2 (A), chondrosarcoma Sarc (B) melanoma A375 (C), metastatic melanoma A375M6 (D), ovarian carcinoma SKOV-3 cells (E) or primary ovarian cancer cells derived from a tumor excision (OV-53) (F) were seeded on polymerized matrigel and allowed to invade matrigel in the absence (None) or in the presence of 10 nM RI-3. Cell invasion was monitored in real-time for 20 hrs as changes in cell index by the xCELLigence RTCA system. Data represent mean±SD from quadruplicate experiments. All cell lines were able to cross matrigel, although to a different extent. In all case RI-3 reduced matrigel invasion by about 30%, 31%, 64%, 57%, 53% and 68%, of Saos-2, Sarc, A375, A375M6, SKOV-3 and OV-53 cells, respectively.

[4] = Stability in human serum, read out by HT1080 matrigel invasion in Boyden chambers; format: in vitro ADME; conditions: 10^−3 mol/L in serum 18 hrs at 37° C., then 10 nM, invasion 6 hrs
Method: FIG. 7 The retro-inverso peptide RI-3 is stable when pre-incubated in bovine (A) or human serum (B) as assessed in real time using the xCELLigence technology (A) or in Boyden chambers (B) (Example 7).
The stability of the retro-inverso peptide RI-3 in bovine and human serum was investigated through incubation of the peptide at a 10^−3 mol/L in serum for 18 hrs at 37° C. HT1080 cells were allowed to migrate toward DMEM (CTRL), 10% FBS (None), 10% FBS plus 10 nM RI-3 or 10% FBS with 10 nM RI-3 pre-incubated with bovine serum and the impedance values were automatically monitored in real time by the xCELLigence system for 18 hrs and expressed as cell index. Data represent the means from a quadruplicate experiment representative of 2 replicates. […] The stability of RI-3 in human serum was further investigated in cell invasion experiments performed in Boyden chambers. HT1080 cells were allowed to invade matrigel for 6 hrs, toward DMEM (CTRL), 10% FBS (None), 10% FBS plus 10 nM RI-3 or 10% FBS with 10 nM RI-3 pre-incubated with human serum. For quantitative analysis of cell invasion, the basal value assessed in the absence of FBS (CTRL) was taken as 100% and all values were reported relative to that. Data are the means±SD from a triplicate experiment. *Statistical significance was calculated against None with p<0.005. […]

## CC(=O)N[C@H](Cc1ccc(O)cc1)C(=O)N[C@H](CCCNC(=N)N)C(=O)NC(C)(C)C(=O)N[C@H](CCCNC(=N)N)C(N)=O [RI-3, Ac-(D)-Tyr-(D)-Arg-Aib-(D)-Arg-NH2] (Ac-[dY][dR][Aib][dR]-NH2)
[1]
  inhibition of binding of fluorescent agonist (FITC-fMLF) to RBL-2H3/ETFR cells: to a similar extent as compared to fMLF
[2]
  inhibition of the capability to disrupt endothelial monolayers: 17%
[3]
  reduction of matrigel invasion: ~31%
[4]
  inhibitory activity retained after pre-incubation with human serum: 81%
